# Key:
# iSRCR1 [1] = molecular target: T1, iSRCR1 (Homo sapiens, UniProt Q9UGM3); test: SPR binding of analytes to immobilized iSRCR1 (CM5 chip, 1:1 Langmuir); conditions: for direct binding to immobilized iSRCR1 (in words): substance alone over CM5 chip
# T1 construct: strongly proves that a single SRCR domain contains the adherence sites for AgI/II and SspB; made in house; host or cells: Drosophila expression system
# Experimental: (§1) Real time binding analyses of the SRCR domains with AgI/II fragments were carried out using the BIAcore 2000 system. […] Self association of iSRCR1 or iSRCR123 (at 2 μM) were also determined in a similar manner as described above. Finally to determine the effect of calcium SPR analysis was carried out by dialyzing the analytes and ligands in binding buffer devoid of CaCl2.
# (§2) In addition, the SRCR holding two distinct surfaces compounded the elucidation of individual kinetics, and presently there are no modeling protocols available to determine the individual affinities for such a system, therefore for simplicity we have utilized a single site 1:1 Langmuir model. All experiments were carried out in triplicates and the kinetics of the association (KA) and dissociation (KD) rate constants were deduced using the 1:1 Langmuir Kinetic model on the BIA-Evaluation software. The concentration (C in μM) of analyte (FL^AgI/II or FL^SspB at 2 μM) that adhered to the immobilized ligand (iSRCR1, iSRCR123) within the flow cell was calculated using the formula C=(RU/MW)×(1/V), where RU is resonance unit (1 RU=1 pg of bound protein), MW is molecular weight of analyte and V is volume of flow cell (1.2×10^−10 L).
# iSRCR123 [2] = molecular target: T2, iSRCR123 (Homo sapiens, UniProt Q9UGM3); test: SPR binding of analytes to immobilized iSRCR123 (CM5 chip, 1:1 Langmuir); conditions: for direct binding to immobilized iSRCR123 (in words): substance alone over CM5 chip
# T2 construct: multiple SRCR domains have better adherence capability compared to that of a single SRCR domain; made in house; host or cells: Drosophila expression system
# Experimental: as §1, §2
# iSRCR1 (Deglycosylated) = molecular target: T3, iSRCR1 (Deglycosylated) (Homo sapiens, UniProt Q9UGM3); test: SPR binding of analytes to on-chip deglycosylated iSRCR1; conditions: ligand iSRCR1 (Deglycosylated)
# T3 construct: strongly proves that a single SRCR domain contains the adherence sites for AgI/II and SspB; made in house; host or cells: Drosophila expression system
# Experimental: as §1
# (§3) On-chip Deglycosylation of the iSRCR1 and iSRCR123 was carried out after immobilizing them on CM5 sensor chip. Enzymatic deglycosylation was done to remove N- and O-linked carbohydrates from iSRCR1 and iSRCR123. Briefly, after immobilization of iSRCR1 and iSRCR123, deglycosylation was carried out at native conditions by incubating the entire chip surface externally with a cocktail containing a total reaction volume of 40 μl made up of 4 μl of 10×G7reaction buffer, 4 μl of 10% NP40, 4 μl of Neuraminidase (Sigma), 18 μl water and 10 μl of O-glycosidase (New England Biolabs, Inc.,) and similarly following manufacturers protocols for EndoH (New England Biolabs, Inc). Later, the chip was sealed and incubated overnight at 37° C. Subsequently the chip was thoroughly washed with binding buffer (20 mM HEPES, 150 mM NaCl, 2.5 mM CaCl2) to remove the deglycosylating enzymes and other remnants. Binding studies with FL^AgI/II and FL^SspB and subfragments were then carried out as described above and regenerated as described in Table 2.
# as §2
# [3] = molecular target: T4, iSRCR123 (Deglycosylated) (Homo sapiens, UniProt Q9UGM3); test: SPR binding of analytes to on-chip deglycosylated iSRCR123; conditions: ligand iSRCR123 (Deglycosylated)
# T4 construct: multiple SRCR domains have better adherence capability compared to that of a single SRCR domain; made in house; host or cells: Drosophila expression system
# Experimental: as §1, §3, §2
# iSRCR1 [4] = molecular target: T1, iSRCR1; test: Competition adherence SPR on immobilized iSRCR1; assay type: binding; conditions: FL injected first
# Experimental: (§4) To determine whether AgI/II domains bound to the same site on SRCR domains, competitive binding SPR experiments were conducted in triplicates as previously described where each fragment of AgI/II (FL, A3VP1, or C123) or SspB (FL, A3VP1 or C123) was initially passed over the chip surface immobilized with either iSRCR1, iSRCR123 or SAG for 60 seconds to saturate available binding sites. The response curve of AgI/II or SspB first fragment was recorded, where the maximal RU (RU1) was considered as the base line for the second injection, and thereafter the competing fragment was injected and its response was recorded as RU2. The adherence of the second fragment was then calculated (RU2−RU1) for all SPR competing assay as reported earlier.
# iSRCR123 [5] = molecular target: T2, iSRCR123; test: Competition adherence SPR on immobilized iSRCR123; assay type: binding; conditions: FL injected first
# Experimental: as §4
# SAG = molecular target: T5, SAG (Homo sapiens, UniProt Q9UGM3); conditions: from reference [15]; read-out: affinity of interaction with SAG; cited from earlier work
# T5 construct: from tissue; host or cells: saliva (purified SAG, gift)
# S. gordonii DL1 [6] = test: Flow cytometric analysis of iSRCR adherence to bacteria; assay type: cell-based; conditions: 10 μM, compared with S. mutans
# Experimental: (§5) S. mutans UA159 and S. gordonii DL1 cells were grown overnight in TSY broth media at 37° C. and washed thoroughly with FACS buffer (20 mM HEPES pH 7.4, 150 mM NaCl and 5% non-fat dry milk) to reduce non-specific binding. Subsequently, 10 μM of iSRCR1 or iSRCR123 were added to 100 μl of cells (1×10^7 cells/ml) in binding buffer (FACS buffer+2.5 mM CaCl2) and incubated for 60 min at 37° C. The cells were later washed thoroughly with binding buffer to remove unbound iSRCRs. Subsequently, Anti-His tag Alexafluor 488 antibody (1:50 dilution) (EMD Millipore, Inc) that adheres to the His tag present on SRCRs was added to the cells and incubated for 30 min, washed three times and resuspended in 200 μl of binding buffer. Samples without iSRCRs served as control. Samples were then assayed using the FACScan machine (BD Biosciences) at the Analytical and Preparative Cytometry Facility (APCF) at UAB, and data obtained was analyzed using FlowJo 7.2.4 software.
# S. mutans UA159 [7] = test: as above; assay type: cell-based; conditions: 10 μM
# Experimental: as §5
# S. mutans UA159 [8] = test: Confocal microscopy of iSRCR adherence to bacteria; assay type: cell-based; conditions: 10 μM
# Experimental: S. mutans UA159 and S. gordonii DL1 were grown overnight in TSY (30 g/L of Trypticase soy broth and 0.5 g/L yeast extract, pH 7.2) media on an eight-well Lab Tek Chamber slide system (Sigma). The cells were fixed with 3% paraformaldehyde, washed with binding buffer (20 mM HEPES pH 7.4, 150 mM NaCl and 2.5 mM CaCl2), and thereafter iSRCR1 or iSRCR123 (10 μM) were added to the cells and incubated for 60 min. The unbound SRCRs were removed by repeated washing using the binding buffer. Subsequently, Alexa fluor 488 conjugated Anti-His-tag antibody (EMD Millipore, Inc) (1:50 dilution) that can bind to the His Tag on SRCRs was added. After 60 min incubation the unbound antibody was washed away thoroughly using binding buffer, and the chamber walls were gently removed. Cover slips were then mounted with 15 μl of fluoromount-G with DAPI (Southern Biotech Inc) to stain bacterial nuclei and were sealed until ready to be imaged. The experiment without SRCRs served as control. All slides were imaged using Leica SP1 UV Confocal Laser Scanning Microscope and Zeiss LSM 710 Confocal Laser Scanning Microscope at the UAB-High resolution imaging facility (UAB-HRIF).
# S. gordonii DL1 [9] = test: Aggregation assay (OD700 over 60 min); assay type: cell-based; conditions: iSRCR 10 μM or SAG, 6 mM CaCl2
# Experimental: (§6) Aggregation assays were performed as described earlier with slight modifications. Briefly, S. mutans UA159 and S. gordonii DL1 cells were grown in TSY broth media overnight at 37° C. in the presence of 5% CO2. The bacteria were centrifuged at 5000×g and washed with a buffer containing 20 mM HEPES pH 7.4, 150 mM NaCl and re-suspended to an approximate OD700 of 1. The bacterial suspension (900 μl) was mixed with 100 μl of SAG or iSRCR1 (10 μM) or iSRCR123 ([…]) or commercially synthesized (Think Peptides, Inc) SRCRP2 peptide with fluorescein amidite (FAM) at the carboxyl end ([…]-[FAM]) (SEQ ID NO:9, at both 400 μg/ml and 1 mg/ml) in the presence of 6 mM CaCl2 and aggregation was measured by recording OD700over 60 min at 5 min intervals, where the buffer alone was used as control. All experiments were carried out at least five times, and the results were analyzed with One-way ANOVA. Post-hoc testing where *, P<0.05 was considered statistically significant and results were presented as the percentage of cells aggregated.
# S. mutans UA159 [10] = test: Aggregation assay (OD700 over 60 min); assay type: cell-based; conditions: iSRCR 10 μM or SAG, 6 mM CaCl2
# Experimental: as §6
# AgI/II VheI (S. mutans) = test: SPR binding of SRCR peptide to immobilized surface protein (Example 3)
# Experimental: (§7) Binding of the SRCR peptide […] (SEQ ID NO: 10) to immobilized bacterial surface proteins was determined using procedures as described in Example 1.
# (§8) The interaction of the SRCR peptide […] (SEQ ID NO:10) with immobilized bacterial surface proteins AgI/II, SspB and GbpC as examined by surface plasmon resonance studies are shown in FIGS. 27A, 27B and 27C respectively, and binding affinities determined from these studies are listed in Table 8.
# GbpC (S. mutans) = test: as above
# Experimental: as §7, §8
# SspB VheI (S. gordonii) = test: as above
# Experimental: as §7, §8
# T2 sequence (Q9UGM3 102-463 limits assumed): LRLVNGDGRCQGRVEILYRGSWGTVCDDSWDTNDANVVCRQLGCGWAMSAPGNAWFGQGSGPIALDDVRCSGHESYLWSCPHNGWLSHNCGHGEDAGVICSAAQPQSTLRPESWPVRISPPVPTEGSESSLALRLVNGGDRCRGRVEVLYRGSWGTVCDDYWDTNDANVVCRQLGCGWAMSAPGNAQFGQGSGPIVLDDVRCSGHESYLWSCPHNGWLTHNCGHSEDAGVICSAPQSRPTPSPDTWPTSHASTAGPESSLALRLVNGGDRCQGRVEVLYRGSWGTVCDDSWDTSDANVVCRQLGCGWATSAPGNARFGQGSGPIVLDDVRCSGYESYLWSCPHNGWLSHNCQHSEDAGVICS
# T4 sequence (Q9UGM3 102-463 limits assumed): as above
# T1 sequence (Q9UGM3 102-202 limits assumed): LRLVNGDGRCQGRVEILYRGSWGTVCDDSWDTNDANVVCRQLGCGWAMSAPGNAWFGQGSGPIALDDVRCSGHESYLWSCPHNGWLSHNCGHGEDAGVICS
# T3 sequence (Q9UGM3 102-202): as the sequence (Q9UGM3 102-202 limits assumed) above
# Sequence of AgI/II VheI (S. mutans) (P23504 464-840 limits assumed): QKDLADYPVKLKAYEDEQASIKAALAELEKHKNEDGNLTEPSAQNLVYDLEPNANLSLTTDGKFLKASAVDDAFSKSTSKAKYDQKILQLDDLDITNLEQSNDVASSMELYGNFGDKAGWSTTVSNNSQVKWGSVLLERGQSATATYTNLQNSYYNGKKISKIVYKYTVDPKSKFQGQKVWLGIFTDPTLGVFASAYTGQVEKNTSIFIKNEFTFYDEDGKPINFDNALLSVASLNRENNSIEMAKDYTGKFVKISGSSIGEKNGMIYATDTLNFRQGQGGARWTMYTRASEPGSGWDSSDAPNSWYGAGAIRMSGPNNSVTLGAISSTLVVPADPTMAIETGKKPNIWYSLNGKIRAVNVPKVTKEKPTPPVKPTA
# T5 sequence (Q9UGM3 20-2413): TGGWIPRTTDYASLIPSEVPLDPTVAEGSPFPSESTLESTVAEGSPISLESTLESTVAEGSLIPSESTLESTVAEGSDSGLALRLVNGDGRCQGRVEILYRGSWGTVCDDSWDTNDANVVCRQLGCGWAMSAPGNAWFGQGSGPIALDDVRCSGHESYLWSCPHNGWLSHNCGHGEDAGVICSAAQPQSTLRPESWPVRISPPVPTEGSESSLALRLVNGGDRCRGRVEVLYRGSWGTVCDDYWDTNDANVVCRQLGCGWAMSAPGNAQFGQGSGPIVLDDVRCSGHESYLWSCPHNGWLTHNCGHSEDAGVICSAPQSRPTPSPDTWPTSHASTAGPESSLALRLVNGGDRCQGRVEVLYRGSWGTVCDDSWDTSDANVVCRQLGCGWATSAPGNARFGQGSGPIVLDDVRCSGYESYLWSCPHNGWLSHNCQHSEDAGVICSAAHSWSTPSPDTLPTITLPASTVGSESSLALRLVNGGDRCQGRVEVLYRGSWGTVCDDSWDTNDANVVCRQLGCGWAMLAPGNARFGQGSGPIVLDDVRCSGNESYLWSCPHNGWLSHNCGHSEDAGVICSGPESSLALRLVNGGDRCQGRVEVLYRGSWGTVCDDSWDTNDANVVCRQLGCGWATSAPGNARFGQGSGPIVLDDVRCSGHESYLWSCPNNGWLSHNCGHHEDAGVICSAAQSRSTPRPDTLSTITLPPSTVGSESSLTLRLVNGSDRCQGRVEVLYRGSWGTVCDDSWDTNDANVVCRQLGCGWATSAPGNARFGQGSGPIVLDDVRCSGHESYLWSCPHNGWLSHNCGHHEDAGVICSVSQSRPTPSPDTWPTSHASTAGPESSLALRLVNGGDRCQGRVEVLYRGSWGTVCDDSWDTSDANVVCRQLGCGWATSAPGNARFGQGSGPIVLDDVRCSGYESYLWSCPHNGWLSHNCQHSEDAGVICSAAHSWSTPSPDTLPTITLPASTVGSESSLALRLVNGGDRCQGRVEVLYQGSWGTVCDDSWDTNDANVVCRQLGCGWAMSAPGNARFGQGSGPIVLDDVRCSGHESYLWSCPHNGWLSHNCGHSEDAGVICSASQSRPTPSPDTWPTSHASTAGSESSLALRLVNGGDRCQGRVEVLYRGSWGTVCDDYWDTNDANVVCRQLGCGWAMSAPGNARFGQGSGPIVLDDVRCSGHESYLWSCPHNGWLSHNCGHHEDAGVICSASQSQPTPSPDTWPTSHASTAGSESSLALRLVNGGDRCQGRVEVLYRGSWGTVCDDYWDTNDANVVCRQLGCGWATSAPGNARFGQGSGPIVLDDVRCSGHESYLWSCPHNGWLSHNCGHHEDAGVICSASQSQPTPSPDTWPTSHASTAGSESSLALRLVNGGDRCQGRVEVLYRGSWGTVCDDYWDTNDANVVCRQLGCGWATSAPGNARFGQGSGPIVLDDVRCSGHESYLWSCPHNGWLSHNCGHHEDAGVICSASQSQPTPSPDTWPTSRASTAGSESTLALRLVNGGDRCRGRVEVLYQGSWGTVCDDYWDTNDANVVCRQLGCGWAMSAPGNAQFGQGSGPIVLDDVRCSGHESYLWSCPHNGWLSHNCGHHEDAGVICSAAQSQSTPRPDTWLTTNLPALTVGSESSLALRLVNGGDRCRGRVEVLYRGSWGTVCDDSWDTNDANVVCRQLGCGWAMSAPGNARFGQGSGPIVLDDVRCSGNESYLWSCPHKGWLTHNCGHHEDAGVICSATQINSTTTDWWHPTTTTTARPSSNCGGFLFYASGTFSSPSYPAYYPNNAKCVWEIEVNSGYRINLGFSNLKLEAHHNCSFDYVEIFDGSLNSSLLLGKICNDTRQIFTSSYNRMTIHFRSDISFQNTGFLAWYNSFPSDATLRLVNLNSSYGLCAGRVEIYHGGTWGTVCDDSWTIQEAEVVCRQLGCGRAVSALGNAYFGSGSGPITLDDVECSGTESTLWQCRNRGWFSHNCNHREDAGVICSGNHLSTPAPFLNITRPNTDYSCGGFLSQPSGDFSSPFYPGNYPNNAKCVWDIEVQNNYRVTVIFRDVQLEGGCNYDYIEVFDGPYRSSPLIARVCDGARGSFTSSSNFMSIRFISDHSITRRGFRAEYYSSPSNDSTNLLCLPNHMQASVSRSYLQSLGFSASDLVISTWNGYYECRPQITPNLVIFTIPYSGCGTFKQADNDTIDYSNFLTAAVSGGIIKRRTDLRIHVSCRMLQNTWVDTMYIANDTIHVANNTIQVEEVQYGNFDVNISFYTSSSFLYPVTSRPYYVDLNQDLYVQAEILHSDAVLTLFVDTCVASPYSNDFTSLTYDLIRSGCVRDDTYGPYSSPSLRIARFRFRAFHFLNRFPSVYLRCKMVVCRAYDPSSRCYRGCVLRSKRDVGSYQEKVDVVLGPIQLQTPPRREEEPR
substance,measurement,setting,value
Lysozyme [reference compound],direct binding to immobilized iSRCR1 (in words),iSRCR1 [1],binding
same,direct binding to immobilized iSRCR123 (in words),iSRCR123 [2],binding
thaumatin [reference compound],direct binding to immobilized iSRCR1 (in words),iSRCR1 [1],not
same,direct binding to immobilized iSRCR123 (in words),iSRCR123 [2],not
FL^AgI/II: S. mutans AgI/II full length construct (167.5 kDa),KA,iSRCR1 [1]; ligand iSRCR1,1.31e+08 M⁻¹
same,Kd,iSRCR1 [1]; ligand iSRCR1,7.69 nM
same,ka,iSRCR1 [1]; ligand iSRCR1,127000 M⁻¹ s⁻¹
same,kd,iSRCR1 [1]; ligand iSRCR1,0.000976 s⁻¹
same,KA,iSRCR1 (Deglycosylated),865000 M⁻¹
same,Kd,iSRCR1 (Deglycosylated),1160 nM
same,ka,iSRCR1 (Deglycosylated),49700 M⁻¹ s⁻¹
same,kd,iSRCR1 (Deglycosylated),0.0575 s⁻¹
same,"quantity of protein that adhered to iSRCR123, higher than iSRCR1","iSRCR123 [2]; analyte at 2 μM, iSRCR123 versus iSRCR1",16%
same,KA,iSRCR123 [2]; ligand iSRCR123,1.34e+08 M⁻¹
same,Kd,iSRCR123 [2]; ligand iSRCR123,7.46 nM
same,ka,iSRCR123 [2]; ligand iSRCR123,99700 M⁻¹ s⁻¹
same,kd,iSRCR123 [2]; ligand iSRCR123,0.000743 s⁻¹
same,KA,[3],6.82e+06 M⁻¹
same,Kd,[3],147 nM
same,ka,[3],3160 M⁻¹ s⁻¹
same,kd,[3],0.000464 s⁻¹
same,inhibition of binding of the A3VP1 fragment of the same protein,iSRCR1 [4],46%
same,inhibition of binding of the C123 fragment of the same protein,iSRCR1 [4],36%
same,inhibition of binding of the A3VP1 fragment of the same protein,iSRCR123 [5],44%
same,inhibition of binding of the C123 fragment of the same protein,iSRCR123 [5],25%
same,Kd,SAG,33.3 nM
iSRCR123: recombinant construct of three tandem SRCR domains of Gp340 (43 kDa),adherence by FACS (in words),S. gordonii DL1 [6],lower adherence
same,increase in fluorescence intensity compared to the control,S. mutans UA159 [7],~100 fold
same,binding to cells by confocal microscopy (in words),S. mutans UA159 [8],binding
same,percentage of cells aggregated,S. gordonii DL1 [9],48%
same,percentage of cells aggregated,S. mutans UA159 [10],69%
ETNDANVVARQL [SRCR peptide],KA,AgI/II VheI (S. mutans),1.56e+08 M⁻¹
same,Kd,AgI/II VheI (S. mutans),6.42 nM
same,Rmax,AgI/II VheI (S. mutans),43.3 Ru
same,ka,AgI/II VheI (S. mutans),1.08 × 10^7 1/ms
same,kd,AgI/II VheI (S. mutans),0.696 s⁻¹
same,KA,GbpC (S. mutans),2.57e+08 M⁻¹
same,Kd,GbpC (S. mutans),3.89 nM
same,Rmax,GbpC (S. mutans),232 Ru
same,ka,GbpC (S. mutans),1.47 × 10^7 1/ms
same,kd,GbpC (S. mutans),0.0573 s⁻¹
same,KA,SspB VheI (S. gordonii),1.42e+08 M⁻¹
same,Kd,SspB VheI (S. gordonii),7.02 nM
same,Rmax,SspB VheI (S. gordonii),110 Ru
same,ka,SspB VheI (S. gordonii),4.44 × 10^6 1/ms
same,kd,SspB VheI (S. gordonii),0.0312 s⁻¹

# — US20160331662A1, “Compositions that Inhibit and Prevent the Formation of Dental Caries and Methods of Using the Same” (priority 2014, published 2016)
